Laboratory results as given in patent US20220056023A1, “PREPARATION AND APPLICATION OF CLASS OF N-CONTAINING HETEROCYCLIC COMPOUNDS HAVING IMMUNOREGULATORY FUNCTION” (SHANGHAI ENNOVABIO PHARMACEUTICALS CO., LTD., priority 2018, published 2022).

Each molecule was assayed against T1, PD-1/PD-L1 (Homo sapiens, UniProt Q9NZQ7) (assay: PD-1/PD-L1 homogeneous time-resolved fluorescence (HTRF) binding assay). Details: Tag 1-PD-L1 / Tag 2-PD-1, Cisbio kit.
T1 construct: purchased Cisbio 63ADK000CPDEC
Excerpt: The PD-1/PD-L1 homogeneous time-resolved fluorescence method is used to detect the binding ability of the compound with PD-L1.
PD-1/PD-L1 binding assay kit (Cisbio, Cat #63ADK000CPDEC) was chosen, which contains two proteins Tag 1-PD-L1 and Tag 2-PD-1, and two antibodies Anti-Tag1-Eu^3+ and Anti-Tag2-XL 665. The principle of detection was: Anti-tag1-Eu^3+ was used as the donor of HTRF, and Anti-Tag2-XL 665 was used as the acceptor of HTRF. When Tag 1-PD-L1 interacts with Tag 2-PD-1, the added HTRF donor and the acceptor are close to each other. After the donor has received the excitation energy, part of the energy was transferred to the acceptor, thus generating 665 nm emission light. […] The inhibitory effect of the compound can be determined by comparing the ratio of 665 nm/620 nm. Tag 1-PD-L1 was diluted with Diluent buffer (cat #62DLBDDF) to a working concentration of 10 nM, Tag 2-PD-1 was diluted with Diluent buffer to a working concentration of 500 nM, Anti-Tag1-Eu^3+ was diluted with detection buffer (cat #62DB1FDG) at a ratio of 1:100, Anti-Tag2-XL 665 was diluted with detection buffer at a ratio of 1:20, and the compound to be detected was diluted with diluent buffer to a final concentration of 2×. Compound (2 μL) was added to each well of a 384-well plate, then Tag 1-PD-L1 (4 μL) and Tag 2-PD-1 (4 μL) were added successively. The mixture was incubated at room temperature for 15 minutes. Then Anti-Tag1-Eu^3+ (5 μL) and Anti-Tag2-XL 665 (5 μL) were added, and the mixture was incubated overnight at room temperature. BioTek Synergy™ Neo2 multifunctional microplate reader was used to detect so as to provide the 665 nm/620 nm ratio. PrismGraphd 5.02 was used to fit the IC50 curve.

T1 sequence (Q9NZQ7 19-238 limits assumed): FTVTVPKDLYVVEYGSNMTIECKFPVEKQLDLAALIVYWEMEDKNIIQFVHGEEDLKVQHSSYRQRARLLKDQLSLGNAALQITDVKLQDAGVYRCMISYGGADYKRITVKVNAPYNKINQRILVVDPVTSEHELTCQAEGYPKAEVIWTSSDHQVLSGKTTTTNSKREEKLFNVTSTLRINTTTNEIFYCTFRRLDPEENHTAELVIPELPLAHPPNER

| SMILES | IC50 [nM] |
| --- | --- |
| OCCNCc1cnc2nn(-c3cccc(-c4ccccc4)c3Cl)cc2c1 [Compound 1, 2-(((2-(2-Chloro-[1,1′-biphenyl]-3-yl)-2H-pyrazolo[3,4-b]pyridin-5-yl)methyl)amino) ethane-1-ol] | 100 to 1000 |
| COc1nc(CNCCO)nc2c1CN(c1cccc(-c3ccccc3)c1Cl)C2 [Compound 5, 2-(((6-(2-Chloro-[1,1′-biphenyl]-3-yl)-4-methoxy-6,7-dihydro-5H-pyrrolo[3,4-d)pyrimidin-2-yl)methyl)amino)ethane-1-ol] | < 100 |

Results, then the molecule that gave them:

| IC50 [nM] | SMILES |
| --- | --- |
| < 100 | COc1nc(CN2CCCC[C@H]2C(=O)O)nc2c1CN(c1cccc(-c3ccccc3)c1Cl)C2 [Compound 6, (S)-1-((6-(2-Chloro-[1,1′-biphenyl]-3-yl)-4-methoxy-6,7-dihydro-5H-pyrrolo[3,4-d)pyrimidin-2-yl)methyl)piperidine-2-carboxylic acid] |
| 100 to 1000 | Cc1c(-c2ccccc2)cccc1-n1cc2cc(CNCCO)cc(C#N)c2n1 [Compound 9, (((2-Hydroxyethyl)amino)methyl)-2-(2-methyl-[1,1′-biphenyl]-3-yl)-2H-indazole-7-carbonitrile] |
| < 100 | COc1cc(CNCCO)cc2c1CN(c1cccc(-c3ccccc3)c1Cl)C2 [Compound 10, 2-(((2-(2-Chloro-[1,1′-biphenyl]-3-yl)-7-methoxyisoindolin-5-yl)methyl)amino)ethane-1-ol] |
